According to publication PMC9301920, “Physiologically Based Toxicokinetic Modeling of Bisphenols in Zebrafish (Danio rerio) Accounting for Variations in Metabolic Rates, Brain Distribution, and Liver Accumulation” (Environmental Science & Technology, 2022):
pEC50: −log10 of the molar value. Where two headings read alike, the source gives them in different places.

Legend:
[1] = In vitro biotransformation rate, rainbow trout liver S9 (OECD TG 319); assay type: in vitro ADME
Protocol: In brief, rainbow trout liver S9 homogenate was preincubated in buffer and cofactors, followed by 120 min of incubation with bisphenol. From each duplicate, 50 μL of subsamples was taken at timepoints 0, 2, 5, 15, 30, 60, 90, and 120 min and mixed with 200 μL of ice-cold methanol. The protocol of the procedure is described further in Section 2.
1042. Biotransformation rate estimation methodology
106Trinova Biochem; Lot: 180216) was pre-incubated at 11°C in K 2HPO4/KH2PO4 buffer
107(pH=7.8; 1 mL final volume) containing alamethicin from Trichoderma viride (25 μg/mL), and
108cofactors NADPH (2 mM), UDPGA (2 mM), GSH (5 mM), and PAPS (0.1 mM). After 10 min
109of preincubation, biotransformation was started by adding 5 µL of bisphenol test compound
110dissolved in methanol (1 µM final concentration). […]

[2] = In vivo zebrafish kinetics of BPZ (water exposure, organ concentrations by LC-MS/MS); set-up: species or system zebrafish (Danio rerio); conditions: female, zebrafish; for concentration at 12 h / concentration at 483 h / concentration at 486 h / concentration at 492 h / concentration at 504 h / concentration at 576 h / concentration at 6 h / concentration at 24 h / concentration at 48 h / concentration at 72 h / concentration at 336 h / concentration at 411 h / concentration at 480 h: female zebrafish; for concentration at 483 h: 483 h (depuration phase); for concentration at 486 h: 486 h (depuration phase); for concentration at 492 h: 492 h (depuration phase); for concentration at 504 h: 504 h (depuration phase); for concentration at 576 h: 576 h (depuration phase); for concentration at 480 h: 480 h (one outlier fish removed); for Cmax / half-life: 17 μg/L in water, observed
Protocol: (§1) At sampling, adult fish were euthanized by immersion in a sodium bicarbonate-buffered tricaine methanesulfonate solution (MS222: 500 mg/L) and decapitated thereafter. […] Additionally, three whole fish were sampled at timepoints of 6, 12, and 24 h of the exposure phase. Water from the fish tank was sampled at 0, 12, 24, 48, 72, 168, 336, 411, and 480 h after exposure start as well as at 0, 12, 24, and 96 h after the start of depuration. Control fish and tank water were sampled before the start of exposure. All samples were immediately stored at −20 °C until further analysis. […]
(§2) 1223. In Vivo Zebrafish Kinetics of BPZ
(§3) 123Adult zebrafish were purchased from a local supplier in Uppsala, Sweden, and acclimatized for
(§4) 1246 weeks before the start of the study. The zebrafish were kept in 26 °C charcoal filtered tap
(§5) 173NH 4OH and 4 ml acetonitrile/tetrahydofuran (1:1) mixture. The 4 ml 2% formic acid in
(§6) 174methanol eluates were evaporated until dry. Remaining residues were then reconstituted in 50
(§7) 175µl water and methanol 50/50 v/v mixture. Extracts were stored at 4°C until measurement.
(§8) 176The extracts were measured on a LC (ExionLC, Sciex) coupled with a Turbo V Ion source (ESI)
(§9) 178Sciex). Separation of compound was done on a phenyl-hexyl column (Kinetex, 100 x 2.1 mm,
(§10) 1791.7 µm, Phenomenex) set at 45°C using a gradient of 0.2 mM NH 4F and 0.2 mM NH4F in
(§11) 180acetonitrile. The applied MRM transitions and MS/MS settings are described in Tables S5-S8.
(§12) LC column Kinetex Phenyl-hexyl column, 1.7 µm, 2,1 mm X 100
(§13) Delay column Isolator column, 2.1 mm X 100 mm (Waters)
(§14) Gradient 0.2 mM NH4F 0.2 mM NH4F in
(§15) 194limit of detection (LOD). The LOD is defined as three times the standard deviation of the blank
(§16) 195plus the average blank value. The limit of quantification (LOQ) is defined as 3.3 * LOD value
(§17) Blank pg/extract Recovery % Repeatability %
(§18) Detection and report limits (calculated on based of average sample intake)

[3] = system: female zebrafish; test: as above; set-up: species or system zebrafish (Danio rerio); conditions: 17 μg/L in water, observed
Protocol: as §1, §2, §3, §4, §5, §6, §7, §8, §9, §10, §11, §12, §13, §14, §15, §16, §17, §18

[4] = molecular target: Estrogen receptor (ER); set-up: method as in Kitamura et al. 2005; conditions: ERE-luciferase reporter assay, MCF-7 cells; ref Kitamura et al. 2005; cited from earlier work
[5] = brain, other: exposure via tank water, 10 μg/L (nominal water concentration), read-out: Mean concentration, brain
[6] = brain, other: water exposure, 10 µg/L, read-out: Mean concentration, brain
[7] = carcass, other: exposure via tank water, 10 μg/L (nominal water concentration), read-out: Mean concentration, carcass
[8] = carcass, other: water exposure, 10 µg/L, read-out: Mean concentration, carcass
[9] = liver, other: exposure via tank water, 10 μg/L (nominal water concentration), read-out: Mean concentration, liver
[10] = liver, other: water exposure, 10 µg/L, read-out: Mean concentration, liver
[11] = ovary, other: exposure via tank water, 10 μg/L (nominal water concentration), read-out: Mean concentration, ovary
[12] = ovary, other: water exposure, 10 µg/L, read-out: Mean concentration, ovary
[13] = whole body (calculated), other: water exposure, 10 µg/L, read-out: Mean concentration, whole body (calculated)
[14] = whole body, other: exposure via tank water, 10 μg/L (nominal water concentration), read-out: Mean concentration, whole body (calculated)
[15] = whole body, other: water exposure, 10 µg/L, read-out: Mean concentration, whole body (measured)
[16] = 17 μg/L (water concentration), brain
[17] = 17 μg/L (water concentration), carcass

Oc1ccc(C2(c3ccc(O)cc3)CCCCC2)cc1 [BPZ, bisphenol Z]
CL ([1]; both series combined): 0.30 mL/(h x mg) | CLin vivo,int (in vivo intrinsic clearance) ([1]; from measured S9 clearance, transformed as suggested by Nichols et al.): 17.4 L/d/Kg fish | CL (clearance rate) ([1]; in vitro incubation with rainbow trout liver S9, assuming 163 mg S9 protein/g liver): 1.16 × 10^3 mL/d/g liver | CL ([1]; series 1 (s1)): 0.33 mL/(h x mg) | k (first-order disappearance rate constant) ([1]; series 1 (s1)): 0.32 h⁻¹ | CL ([1]; series 2 (s2)): 0.26 mL/(h x mg) | k (first-order disappearance rate constant) ([1]; series 2 (s2)): 0.26 h⁻¹ | concentration at 12 h [2, 5]: 82.1 ng/g | concentration at 483 h [2, 5]: 14.4 ng/g | concentration at 486 h [2, 5]: 7.9 ng/g | concentration at 492 h [2, 5]: < 2.5 ng/g | concentration at 504 h [2, 5]: < 3 ng/g | concentration at 576 h [2, 5]: < 2.5 ng/g | concentration at 6 h [2, 6]: 72 ng/g | concentration at 24 h [2, 6]: 116 ng/g | concentration at 48 h [2, 6]: 64.4 ng/g | concentration at 72 h [2, 6]: 170 ng/g | concentration at 336 h [2, 6]: 156 ng/g | concentration at 411 h [2, 6]: 150 ng/g | concentration at 480 h [2, 6]: 61.4 ng/g | concentration at 480 h [2, 7]: 249 ng/g | concentration at 483 h [2, 7]: 133 ng/g | concentration at 486 h [2, 7]: 24.3 ng/g | concentration at 492 h [2, 7]: 18.9 ng/g | concentration at 504 h [2, 7]: 8.3 ng/g | concentration at 576 h [2, 7]: 1.6 ng/g | concentration at 6 h [2, 8]: 160 ng/g | concentration at 12 h [2, 8]: 261 ng/g | concentration at 24 h [2, 8]: 671 ng/g | concentration at 48 h [2, 8]: 612 ng/g | concentration at 72 h [2, 8]: 1120 ng/g | concentration at 336 h [2, 8]: 348 ng/g | concentration at 411 h [2, 8]: 557 ng/g | concentration at 12 h [2, 9]: 57.5 ng/g | concentration at 483 h [2, 9]: 252 ng/g | concentration at 486 h [2, 9]: 71.3 ng/g | concentration at 492 h [2, 9]: 11 ng/g | concentration at 504 h [2, 9]: 12.4 ng/g | concentration at 576 h [2, 9]: 4.4 ng/g | concentration at 6 h [2, 10]: 182 ng/g | concentration at 24 h [2, 10]: 364 ng/g | concentration at 48 h [2, 10]: 225 ng/g | concentration at 72 h [2, 10]: 536 ng/g | concentration at 336 h [2, 10]: 146 ng/g | concentration at 411 h [2, 10]: 232 ng/g | concentration at 480 h [2, 10]: 1010 ng/g | concentration at 12 h [2, 11]: 113 ng/g | concentration at 480 h [2, 11]: 69.3 ng/g | concentration at 483 h [2, 11]: 108 ng/g | concentration at 486 h [2, 11]: 108 ng/g | concentration at 492 h [2, 11]: 84.5 ng/g | concentration at 504 h [2, 11]: 48.3 ng/g | concentration at 576 h [2, 11]: 1 ng/g | concentration at 6 h [2, 12]: 85.3 ng/g | concentration at 24 h [2, 12]: 146 ng/g | concentration at 48 h [2, 12]: 146 ng/g | concentration at 72 h [2, 12]: 259 ng/g | concentration at 336 h [2, 12]: 269 ng/g | concentration at 411 h [2, 12]: 214 ng/g | concentration at 12 h [2, 13]: 203 ng/g | concentration at 24 h [2, 13]: 530 ng/g | concentration at 48 h [2, 13]: 500 ng/g | concentration at 72 h [2, 13]: 900 ng/g | concentration at 336 h [2, 13]: 296 ng/g | concentration at 411 h [2, 13]: 472 ng/g | concentration at 6 h [2, 14]: 130 ng/g | concentration at 6 h ([2]; whole body, other: exposure via tank water, 10 μg/L (nominal water concentration), read-out: Mean concentration, whole body (measured)): 215 ng/g | concentration at 480 h [2, 14]: 449 ng/g | concentration at 483 h [2, 14]: 128 ng/g | concentration at 486 h [2, 14]: 35.1 ng/g | concentration at 492 h [2, 14]: 28.2 ng/g | concentration at 504 h [2, 14]: 14.5 ng/g | concentration at 576 h [2, 14]: 1.5 ng/g | concentration at 12 h [2, 15]: 336 ng/g | concentration at 24 h [2, 15]: 435 ng/g | Cmax [2, 16]: 170 ng/g | half-life [2, 16]: 135 h | Cmax [2, 17]: 1120 ng/g | half-life [2, 17]: 119 h | Cmax ([2]; liver): 1010 ng/g | half-life ([2]; liver): 210 h | Cmax ([2]; ovaries): 270 ng/g | half-life ([2]; ovaries): 247 h | Cmax ([2]; whole body): 900 ng/g | half-life ([2]; whole body): 134 h | AUC ([3]; brain): 2.85 µg/g/day | BCF ([3]; brain): 10.0 | AUC ([3]; carcass): 12.5 µg/g/day | BCF ([3]; carcass): 65.9 | AUC ([3]; liver): 7.07 µg/g/day | BCF ([3]; liver): 59.2 | AUC ([3]; ovaries): 4.70 µg/g/day | BCF ([3]; ovaries): 15.8 | AUC ([3]; whole body): 10.6 µg/g/day | BCF ([3]; whole body): 52.9 | pEC50 [4]: 6.68
